Tests used:
Assay type in all cases: protein-complex assay; call rule not given here
[1] = target: T1, Cyclin-dependent kinase 2/cyclin E1 (Homo sapiens, UniProt P24941); assay: Inhibitory concentration tested against Cyclin dependant kinase 2-cyclinE; ND: not determined
[2] = target: Cyclin-dependent kinase 1/cyclin B1 (Homo sapiens, UniProt P06493); assay: Inhibitory concentration tested against Cyclin dependant kinase 1-cyclinB
[3] = target: T2, Cyclin-dependent kinase 4/cyclin D1 (Homo sapiens, UniProt P11802); assay: Inhibitory concentration tested against Cyclin dependant kinase 4-cyclinD1; ND: not determined
T2 sequence (P11802 whole entry): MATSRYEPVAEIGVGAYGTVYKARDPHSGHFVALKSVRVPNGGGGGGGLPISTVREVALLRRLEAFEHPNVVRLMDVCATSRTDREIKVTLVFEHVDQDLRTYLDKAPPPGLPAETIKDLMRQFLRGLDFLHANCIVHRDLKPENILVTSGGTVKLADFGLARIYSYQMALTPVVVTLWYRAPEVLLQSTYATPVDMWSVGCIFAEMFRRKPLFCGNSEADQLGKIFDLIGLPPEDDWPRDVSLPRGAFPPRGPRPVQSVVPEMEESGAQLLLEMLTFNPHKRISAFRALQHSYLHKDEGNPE
T2 sequence (P24385 whole entry, further chain): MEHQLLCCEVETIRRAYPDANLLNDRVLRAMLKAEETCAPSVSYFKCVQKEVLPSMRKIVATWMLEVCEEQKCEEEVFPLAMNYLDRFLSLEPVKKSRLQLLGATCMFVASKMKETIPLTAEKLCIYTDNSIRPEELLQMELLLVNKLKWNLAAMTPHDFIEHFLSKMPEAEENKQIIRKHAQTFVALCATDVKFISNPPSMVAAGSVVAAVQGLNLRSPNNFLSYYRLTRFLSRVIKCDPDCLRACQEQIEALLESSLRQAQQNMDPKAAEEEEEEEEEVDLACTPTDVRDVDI

[4] = target: T1, Cyclin-dependent kinase 2/cyclin E1; assay: Inhibitory concentration tested against Cyclin dependant kinase 2-cyclinE
[5] = target: Cyclin-dependent kinase 5/CDK5 activator 1 (Homo sapiens, UniProt Q00535+Q15078); assay: Inhibitory concentration tested against Cyclin-dependent kinase 5; NA: not active
Cyclin-dependent kinase 5/CDK5 activator 1 (Homo sapiens, UniProt Q00535+Q15078), sequence (Q00535 whole entry): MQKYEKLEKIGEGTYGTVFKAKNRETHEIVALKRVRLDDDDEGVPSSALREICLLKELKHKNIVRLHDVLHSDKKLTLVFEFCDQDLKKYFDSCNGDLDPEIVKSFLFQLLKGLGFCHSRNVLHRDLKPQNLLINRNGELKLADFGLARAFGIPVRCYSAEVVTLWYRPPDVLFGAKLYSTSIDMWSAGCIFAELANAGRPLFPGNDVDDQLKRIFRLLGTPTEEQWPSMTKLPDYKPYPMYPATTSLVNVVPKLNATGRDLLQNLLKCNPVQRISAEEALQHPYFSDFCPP
Cyclin-dependent kinase 5/CDK5 activator 1 (Homo sapiens, UniProt Q00535+Q15078), sequence (Q15078 whole entry): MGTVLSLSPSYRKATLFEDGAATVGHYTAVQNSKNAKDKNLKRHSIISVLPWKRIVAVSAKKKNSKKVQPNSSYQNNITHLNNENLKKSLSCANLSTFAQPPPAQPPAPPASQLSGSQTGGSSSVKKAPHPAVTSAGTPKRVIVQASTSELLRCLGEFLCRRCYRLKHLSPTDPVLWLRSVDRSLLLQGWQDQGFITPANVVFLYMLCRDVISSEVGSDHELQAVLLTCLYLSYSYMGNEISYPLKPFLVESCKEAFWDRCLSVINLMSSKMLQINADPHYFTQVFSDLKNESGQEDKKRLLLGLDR

[6] = target: T2, Cyclin-dependent kinase 4/cyclin D1; assay: Inhibitory concentration tested against Cyclin dependant kinase 4-cyclinD1
[7] = target: Cyclin-dependent kinase 5/CDK5 activator 1 (Homo sapiens, UniProt Q00535); assay: Inhibitory concentration tested against Cyclin-dependent kinase 5
Cyclin-dependent kinase 5/CDK5 activator 1 (Homo sapiens, UniProt Q00535), sequence (Q00535 whole entry): as the sequence (Q00535 whole entry) above
Cyclin-dependent kinase 5/CDK5 activator 1 (Homo sapiens, UniProt Q00535), sequence (Q15078 whole entry, further chain): as the sequence (Q15078 whole entry) above

Cyclin-dependent kinase 1/cyclin B1, sequence (P06493 whole entry): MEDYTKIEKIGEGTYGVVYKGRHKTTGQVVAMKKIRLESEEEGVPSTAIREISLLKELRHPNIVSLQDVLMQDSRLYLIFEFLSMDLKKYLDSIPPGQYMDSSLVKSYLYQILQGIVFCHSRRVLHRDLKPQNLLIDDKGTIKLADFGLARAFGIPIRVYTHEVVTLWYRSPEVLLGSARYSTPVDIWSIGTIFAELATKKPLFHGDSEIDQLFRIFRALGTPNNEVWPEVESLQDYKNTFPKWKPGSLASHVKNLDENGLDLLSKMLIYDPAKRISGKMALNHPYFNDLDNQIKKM
Cyclin-dependent kinase 1/cyclin B1, sequence (P14635 whole entry, further chain): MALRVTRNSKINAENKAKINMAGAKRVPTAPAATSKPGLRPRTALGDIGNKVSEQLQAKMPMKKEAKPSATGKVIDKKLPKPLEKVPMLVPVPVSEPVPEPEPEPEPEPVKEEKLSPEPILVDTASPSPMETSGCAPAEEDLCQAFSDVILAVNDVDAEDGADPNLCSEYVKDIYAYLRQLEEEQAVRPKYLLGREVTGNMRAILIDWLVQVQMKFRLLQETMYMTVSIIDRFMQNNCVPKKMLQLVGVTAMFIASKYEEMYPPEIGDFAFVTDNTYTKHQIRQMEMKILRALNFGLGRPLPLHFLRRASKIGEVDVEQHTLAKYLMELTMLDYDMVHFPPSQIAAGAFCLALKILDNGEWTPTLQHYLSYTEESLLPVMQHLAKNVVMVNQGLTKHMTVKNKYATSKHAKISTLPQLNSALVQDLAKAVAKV

Row | IC50 [4] [µM] | IC50 [5] | IC50 [6] [µM] | Structure (SMILES) | IC50 [1] [µM] | IC50 [2] [µM] | IC50 [3] [µM] | IC50 [7] [µM]
1 | > 100 | Not Active | > 100 | Cc1cnc2oc3ccc(O)cc3c2c1-c1ccccc1 | – | > 100 | – | –
2 | > 100 | – | > 100 | CCOc1cnc2oc3ccc(O)cc3c2c1-c1ccccc1 | – | > 100 | – | 5.9
3 | > 100 | Not Active | > 100 | Oc1ccc2oc3ncc(Cl)c(-c4ccccc4)c3c2c1 | – | > 100 | – | –

Further lines, the compound ahead of its results:

Row | Structure (SMILES) | IC50 [4] [µM] | IC50 [5] | IC50 [6] [µM] | IC50 [1] [µM] | IC50 [2] [µM] | IC50 [3] [µM] | IC50 [7] [µM]
4 | CC(=O)c1cnc2oc3ccc(O)cc3c2c1-c1ccccc1 | – | – | – | > 100 | 4.2 | > 100 | –
5 | COc1cnc2oc3ccc(O)cc3c2c1-c1ccccc1 | 80 | – | > 100 | – | 64.3 | – | 6.3
6 | Oc1ccc2oc3ncc(Br)c(-c4ccccc4)c3c2c1 | 3.2 | Not Active | 28.7 | – | 70.7 | – | –

— ChEMBL document CHEMBL1144308, “Novel CDK inhibition profiles of structurally varied 1-aza-9-oxafluorenes” (Bioorg Med Chem Lett, 2005)
